Measurements from publication PMC3479146, “Flanking Residues Are Central to DO11.10 T Cell Hybridoma Stimulation by Ovalbumin 323–339” (PLoS ONE, 2012).
Several values for one entry are separate records, joined by “and”; a condition that tells them apart may be missing. Identical values can stand only once. Like-named read-outs stand apart in the source and are kept apart here. Marks after values point to notes of the source that are not given here. Where no end group is shown, it is not given here.

Assays:
I-A^d = conditions: cited from earlier work
Description: Table 1 Alternate registers within OVA 323–339. | column: Dissociation rate constants ^a / (k d, s^−1) || Peptide-MHC complex stability correlates broadly with immunogenicity, [21], as stable epitopes are more prevalent on the cell surface, and subsequently more likely to be recognized by responding T cells. Stability is commonly approximated as the dissociation rate of fluorescently labeled peptide from soluble MHC, although this approach can be complicated by highly overlapping registers. […] Supporting the thermodynamic stability of register one, a complex between the 323–339 peptide and I-A^d was cr ... || The HEL epitope consisting of residues 11 through 25 (HEL11-25) has been characterized as a weak MHC binder when presented by I-A^d, with a short half-life of approximately six hours that presumably results from a poorly accommodated arginine side chain in the P1 pocket. We compared the activities of wild type HEL11-25 to a variant in which the native P-4 to P-2 sequence was replaced with OVA-specific residues (QAV13-25) and a control in which these three residues were adjusted to GGS (GGS13-25). Since these changes lengthen the HEL11-25 peptide by a single amino acid, a control in whic ...

[1] = test system: HEL11–25 responsive T cell hybridoma; conditions: synthetic HEL peptide; A20 + HEL11-25 hybridoma cells, 24 h; IL-2 ELISA; 3-parameter curve fits of aggregate data from at least two experiments
Procedure: We compared the activities of wild type HEL11-25 to a variant in which the native P-4 to P-2 sequence was replaced with OVA-specific residues (QAV13-25) and a control in which these three residues were adjusted to GGS (GGS13-25). Since these changes lengthen the HEL11-25 peptide by a single amino acid, a control in which the HEL11-25 peptide was appended with an N-terminal glycine in position P-3 (G11-25) was also analyzed.
Each well of a 96-well plate was seeded with 15,000 A20 cells, 15,000 T cell hydridoma cells and peptide, malE chimera protein or control peptide/protein per well in DMEM media without L-glutamine, except where noted. After a 24-hour incubation at 37°C, 5% CO2, supernatant was transferred to a new plate and stored at −80°C prior to IL-2 quantification assays. All peptide/protein doses were performed in triplicate wells and all experiments replicated at least twice.
For malE chimeras and control protein experiments, the relevant protein was thawed, concentrated using 30K molecular weight cut-off centrifugal filter units (Millipore UFC903024) and filter-sterilized. Proteins were then quantified via absorbance at 280 nm using a predicted extinction coefficient and molecular weight, diluted to equal concentrations, the concentration confirmed and serially diluted in 96-well plates. […] Proteins were pre-incubated for four hours with antigen presenting cells (A20 or 3A5) cells prior to a 24-hour incubation with T cell hybridomas. The IL-2 concentration in the supernatant was quantified using a matched pair ELISA quantified with an IL-2 standard as described (BD #555148). All experiments were performed at least twice, and all wells were measured in triplicate. Data was analyzed with Graphpad Prism 5 (La Jolla, CA).

DO11.10 T cell hybridoma [2] = assay: DO11.10 hybridoma IL-2 secretion with A20 antigen presenting cells and exogenous OVA peptide variants; assay type: cell-based, murine; conditions: synthetic peptide; 15,000 A20 + 15,000 DO11.10 cells per well, 24 h, 37°C, DMEM without L-glutamine; IL-2 by matched pair ELISA; 3-parameter curve fits of aggregate data from at least two experiments
Procedure: Two previous reports described anchor substitutions to stabilize register four. […] To assess the relative success of these attempts, we synthesized both variants, along with an N-terminally truncated version of the Robertson peptide (328–339 EIVS; Table 2) to remove the effects of flanking residues which we hypothesized would promote register masking. To assess peptide activity, DO11.10 hybridomas were incubated for 24 hours with I-A^d+ A20 lymphoma cells in the presence of peptide, and supernatant was subsequently assessed for the presence IL-2 by a matched pair ELISA as a measure of T cell activation. […]
(§1) Each well of a 96-well plate was seeded with 15,000 A20 cells, 15,000 T cell hydridoma cells and peptide, malE chimera protein or control peptide/protein per well in DMEM media without L-glutamine, except where noted. After a 24-hour incubation at 37°C, 5% CO2, supernatant was transferred to a new plate and stored at −80°C prior to IL-2 quantification assays. […]
For malE chimeras and control protein experiments, the relevant protein was thawed, concentrated using 30K molecular weight cut-off centrifugal filter units (Millipore UFC903024) and filter-sterilized. Proteins were then quantified via absorbance at 280 nm using a predicted extinction coefficient and molecular weight, diluted to equal concentrations, the concentration confirmed and serially diluted in 96-well plates. […]

DO11.10 T cell hybridoma [3] = assay: DO11.10 hybridoma IL-2 secretion with A20 cells and malE chimeras containing OVA epitope variants; assay type: cell-based, murine; conditions: malE chimera protein pre-incubated 4 h with A20 cells, then 24 h with DO11.10, IL-2 ELISA, 3-parameter curve fits of aggregate data from at least two experiments
Description: Peptide sequences were introduced into the exposed loop in place of residues 133–140 as first described by Martineau et al., with a glycine-serine extension (GSGSG) appended to the N-terminus of inserted epitopes to increase solubility (Figure 3A, Table 4). The activity of the N-terminally truncated peptides in MBP (325–337, 327–337, 328–337) indicates a maintained preference for wild type flanking residues as was previously observed with synthetic peptides (Figure 3A, Table 4). […] The increased activity of variants retaining the wild type P-3 and P-4 residues of register four during intracellular processing again supports their direct role in mediating the peptide and MHC interaction. […]
as §1
For malE chimeras and control protein experiments, the relevant protein was thawed, concentrated using 30K molecular weight cut-off centrifugal filter units (Millipore UFC903024) and filter-sterilized. […] The IL-2 concentration in the supernatant was quantified using a matched pair ELISA quantified with an IL-2 standard as described (BD #555148). […]

[4] = apparent first order dissociation constant of presumed isolated register from purified I-A^d, single exponential fits to monophasic dissociation data

323–335 Q325A: literature OVA 323–335 peptide with alanine at position 325, used for register 1 dissociation
Dissociation rate constants (k d, s^−1) (I-A^d; [4]): 2.3e-06 s⁻¹

325–336: literature OVA 325–336 peptide used for register 3 dissociation
Dissociation rate constants (k d, s^−1) (I-A^d; [4]): 2.6e-06 s⁻¹

327–339 V327K: literature OVA 327–339 peptide with lysine at position 327, used for register 4 dissociation
Dissociation rate constants (k d, s^−1) (I-A^d; apparent first order dissociation constant from purified I-A^d, back-calculated from reported half-life of dissociation): 0.0006 s⁻¹ | half-life of peptide dissociation from I-A^d (I-A^d; register four core truncated at P-2, P-2 valine altered to lysine): around twenty

AMKRHGLDNYRGYSL [HEL11-25]
half-life when presented by I-A^d (I-A^d): approximately six | Max response (ng/ml IL-2) [1]: 0.7 ng/ml IL-2

GAMKRHGLDNYRGYSL [Peptide G11-25]
Max response (ng/ml IL-2) [1]: 0.7 ng/ml IL-2

GGSKRHGLDNYRGYSL [GGS13-25]
Max response (ng/ml IL-2) [1]: 0.5 ^* ng/ml IL-2

ISQAVHAAHAEINEAGR [323–339]
EC50 (DO11.10 T cell hybridoma [2]): 1.6 µM

MalE chimera 325–337: maltose binding protein with OVA 325–337 replacing malE residues 133–140
Max response (ng/ml IL-2) (DO11.10 T cell hybridoma [3]): 1.1 ^* ng/ml IL-2 | EC50 (DO11.10 T cell hybridoma [3]; read-out: EC50 (µM peptide)): 18 µM

QAVKRHGLDNYRGYSL [QAV13-25]
Max response (ng/ml IL-2) [1]: 1.5 ng/ml IL-2 and 1.5 ^* ng/ml IL-2
